Measurements published in the supplement of paper PMC6335503.
± gives the standard deviation of the averaged measurements.

Key:
Assay in all cases: cell viability, percent of DMSO control (CellTiter-Glo); higher = more viable cells
Conditions in all cases: 72 h
[1] = tested on: DFTD cell line T3 (06/0368)
Experimental: (§1)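 Eight-point dose titration of 41 screen hits in triplicate wells on four Tasmanian devil DFTD tumour cell lines (T1-T4) and devil fibroblasts, 384-well plates. Viability was read by CellTiter-Glo (ATP) after 72 h at 37 °C. Percent of control per plate: DMSO wells = 100%, positive-control wells = 0%.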

[2] = tested on: DFTD cell line T1 (06/2887)
Experimental: as §1

[3] = tested on: DFTD cell line T2 (05/2569)
Experimental: as §1

[4] = tested on: DFTD cell line T4 (07/0192)
Experimental: as §1

SMILES: COc1cccc2c1C(=O)c1c(O)c3c(c(O)c1C2=O)C[C@@](O)(C(=O)CO)C[C@@H]3O[C@H]1C[C@H](N)[C@@H](O)[C@H](C)O1.Cl
- cell viability ([1]; 0.00617 µM): 124 ± 11%
- cell viability ([1]; 0.0185 µM): 110 ± 44%
- cell viability ([1]; 0.0556 µM): 96.2 ± 12%
- cell viability ([1]; 0.166667 µM): 81.9 ± 18%
- cell viability ([1]; 0.5 µM): 63.8 ± 6.6%
- cell viability ([1]; 1.5 µM): 19.3 ± 3.4%
- cell viability ([1]; 4.5 µM): 5.78 ± 4.9%
- cell viability ([1]; 13.5 µM): -4.2 ± 4.2%
- cell viability ([2]; 0.00617 µM): 127 ± 20%
- cell viability ([2]; 0.0185 µM): 96.8 ± 35%
- cell viability ([2]; 0.0556 µM): 94.5 ± 5%
- cell viability ([2]; 0.166667 µM): 66.7 ± 14%
- cell viability ([2]; 0.5 µM): 60.6 ± 6.7%
- cell viability ([2]; 1.5 µM): -2.32 ± 3.8%
- cell viability ([2]; 4.5 µM): -3.85 ± 4.9%
- cell viability ([2]; 13.5 µM): -11.8 ± 0.8%
- cell viability ([3]; 0.00617 µM): 116 ± 3.2%
- cell viability ([3]; 0.0185 µM): 105 ± 38%
- cell viability ([3]; 0.0556 µM): 107 ± 8.6%
- cell viability ([3]; 0.166667 µM): 79.4 ± 6.3%
- cell viability ([3]; 0.5 µM): 68.9 ± 3.2%
- cell viability ([3]; 1.5 µM): 22.8 ± 5%
- cell viability ([3]; 4.5 µM): -4.77 ± 4%
- cell viability ([3]; 13.5 µM): -10.2 ± 3.1%
- cell viability ([4]; 0.00617 µM): 118 ± 30%
- cell viability ([4]; 0.0185 µM): 97.7 ± 28%
- cell viability ([4]; 0.0556 µM): 89.8 ± 12%
- cell viability ([4]; 0.166667 µM): 67.5 ± 13%
- cell viability ([4]; 0.5 µM): 57.2 ± 10%
- cell viability ([4]; 1.5 µM): -4.01 ± 4.5%
- cell viability ([4]; 4.5 µM): -5.27 ± 1.6%
- cell viability ([4]; 13.5 µM): -4.94 ± 4.3%

SMILES: COc1cccc2c1C(=O)c1c(O)c3c(c(O)c1C2=O)C[C@@](O)(C(=O)CO)C[C@@H]3O[C@H]1C[C@H](N)[C@H](O)[C@H](C)O1.Cl
- cell viability ([1]; 0.00617 µM): 101 ± 18%
- cell viability ([1]; 0.0185 µM): 102 ± 5.6%
- cell viability ([1]; 0.0556 µM): 97.9 ± 17%
- cell viability ([1]; 0.166667 µM): 95.8 ± 19%
- cell viability ([1]; 0.5 µM): 60.3 ± 11%
- cell viability ([1]; 1.5 µM): 45 ± 4.4%
- cell viability ([1]; 4.5 µM): 1.01 ± 0.94%
- cell viability ([1]; 13.5 µM): 2.64 ± 8.3%
- cell viability ([2]; 0.00617 µM): 106 ± 19%
- cell viability ([2]; 0.0185 µM): 112 ± 28%
- cell viability ([2]; 0.0556 µM): 94.2 ± 8.7%
- cell viability ([2]; 0.166667 µM): 95.5 ± 18%
- cell viability ([2]; 0.5 µM): 61.2 ± 8.2%
- cell viability ([2]; 1.5 µM): 32.2 ± 2.5%
- cell viability ([2]; 4.5 µM): 1.1 ± 6.5%
- cell viability ([2]; 13.5 µM): -3.65 ± 5%
- cell viability ([3]; 0.00617 µM): 118 ± 33%
- cell viability ([3]; 0.0185 µM): 107 ± 14%
- cell viability ([3]; 0.0556 µM): 90.9 ± 19%
- cell viability ([3]; 0.166667 µM): 97.9 ± 18%
- cell viability ([3]; 0.5 µM): 60.3 ± 14%
- cell viability ([3]; 1.5 µM): 33.7 ± 8.7%
- cell viability ([3]; 4.5 µM): -0.292 ± 4.4%
- cell viability ([3]; 13.5 µM): -2.07 ± 4.8%
- cell viability ([4]; 0.00617 µM): 110 ± 16%
- cell viability ([4]; 0.0185 µM): 98 ± 4.9%
- cell viability ([4]; 0.0556 µM): 89.9 ± 30%
- cell viability ([4]; 0.166667 µM): 91.9 ± 4.3%
- cell viability ([4]; 0.5 µM): 43.8 ± 15%
- cell viability ([4]; 1.5 µM): 24.2 ± 7%
- cell viability ([4]; 4.5 µM): -1.02 ± 1.8%
- cell viability ([4]; 13.5 µM): 1.84 ± 5.4%

SMILES: COc1cc2ncnc(Nc3ccc(F)c(Cl)c3)c2cc1NC(=O)/C=C/CN1CCCCC1
- cell viability ([1]; 0.00617 µM): 108 ± 16%
- cell viability ([1]; 0.0185 µM): 97.5 ± 14%
- cell viability ([1]; 0.0556 µM): 91.6 ± 18%
- cell viability ([1]; 0.166667 µM): 77.7 ± 1.5%
- cell viability ([1]; 0.5 µM): 39.7 ± 5.3%
- cell viability ([1]; 1.5 µM): 38.3 ± 3.5%
- cell viability ([1]; 4.5 µM): 27.9 ± 7%
- cell viability ([1]; 13.5 µM): -10.9 ± 5.5%
- cell viability ([2]; 0.00617 µM): 97.4 ± 26%
- cell viability ([2]; 0.0185 µM): 108 ± 39%
- cell viability ([2]; 0.0556 µM): 94.3 ± 19%
- cell viability ([2]; 0.166667 µM): 58.2 ± 6.1%
- cell viability ([2]; 0.5 µM): 36.2 ± 4%
- cell viability ([2]; 1.5 µM): 27.5 ± 6.9%
- cell viability ([2]; 4.5 µM): 30.8 ± 20%
- cell viability ([2]; 13.5 µM): 19.8 ± 14%
- cell viability ([3]; 0.00617 µM): 112 ± 30%
- cell viability ([3]; 0.0185 µM): 95.2 ± 46%
- cell viability ([3]; 0.0556 µM): 106 ± 12%
- cell viability ([3]; 0.166667 µM): 90.6 ± 2.5%
- cell viability ([3]; 0.5 µM): 81.1 ± 22%
- cell viability ([3]; 1.5 µM): 51 ± 8.7%
- cell viability ([3]; 4.5 µM): 49.8 ± 13%
- cell viability ([3]; 13.5 µM): 50.5 ± 13%
- cell viability ([4]; 0.00617 µM): 107 ± 7.5%
- cell viability ([4]; 0.0185 µM): 96.2 ± 33%
- cell viability ([4]; 0.0556 µM): 88 ± 13%
- cell viability ([4]; 0.166667 µM): 77.2 ± 1.9%
- cell viability ([4]; 0.5 µM): 25 ± 6.3%
- cell viability ([4]; 1.5 µM): 26.5 ± 3.8%
- cell viability ([4]; 4.5 µM): 11.7 ± 14%
- cell viability ([4]; 13.5 µM): -11.1 ± 6%

SMILES: CS(=O)(=O)CCNCc1ccc(-c2ccc3ncnc(Nc4ccc(OCc5cccc(F)c5)c(Cl)c4)c3c2)o1.Cc1ccc(S(=O)(=O)O)cc1
- cell viability ([1]; 0.00617 µM): 96 ± 14%
- cell viability ([1]; 0.0185 µM): 105 ± 4.2%
- cell viability ([1]; 0.0556 µM): 99.2 ± 22%
- cell viability ([1]; 0.166667 µM): 97.4 ± 13%
- cell viability ([1]; 0.5 µM): 63 ± 14%
- cell viability ([1]; 1.5 µM): 54.1 ± 6%
- cell viability ([1]; 4.5 µM): 42.2 ± 2.4%
- cell viability ([1]; 13.5 µM): 40.8 ± 22%
- cell viability ([2]; 0.00617 µM): 127 ± 30%
- cell viability ([2]; 0.0185 µM): 119 ± 34%
- cell viability ([2]; 0.0556 µM): 87.5 ± 10%
- cell viability ([2]; 0.166667 µM): 102 ± 13%
- cell viability ([2]; 0.5 µM): 46.3 ± 14%
- cell viability ([2]; 1.5 µM): 28.1 ± 1.4%
- cell viability ([2]; 4.5 µM): 24 ± 4.6%
- cell viability ([2]; 13.5 µM): 31.8 ± 14%
- cell viability ([3]; 0.00617 µM): 109 ± 37%
- cell viability ([3]; 0.0185 µM): 114 ± 20%
- cell viability ([3]; 0.0556 µM): 98.2 ± 27%
- cell viability ([3]; 0.166667 µM): 117 ± 23%
- cell viability ([3]; 0.5 µM): 83.3 ± 12%
- cell viability ([3]; 1.5 µM): 44.3 ± 7.7%
- cell viability ([3]; 4.5 µM): 35.8 ± 6.4%
- cell viability ([3]; 13.5 µM): 32.3 ± 14%
- cell viability ([4]; 0.00617 µM): 102 ± 3.8%
- cell viability ([4]; 0.0185 µM): 123 ± 22%
- cell viability ([4]; 0.0556 µM): 101 ± 20%
- cell viability ([4]; 0.166667 µM): 91.8 ± 9.4%
- cell viability ([4]; 0.5 µM): 62.7 ± 8.4%
- cell viability ([4]; 1.5 µM): 46.1 ± 8%
- cell viability ([4]; 4.5 µM): 22.1 ± 4.5%
- cell viability ([4]; 13.5 µM): 28.7 ± 14%
